# Assay results: publication PMC10010340, “The Wnt Pathway Inhibitor RXC004 Blocks Tumor Growth and Reverses Immune Evasion in Wnt Ligand–dependent Cancer Models” (Cancer Research Communications, 2022)
# Read-outs that look alike come from different tables or passages of the source.
# What was measured:
# CT26 tumors = experiment: CT26/BALB/c syngeneic model; type: in vivo, mouse (BALB/c); details: RXC004 1.5 or 5 mg/kg once daily; anti-PD-1 10 mg/kg every 3 days
# Procedure: CT26/BALB/c syngeneic model was performed at ProQuinase GmbH. Mouse CT26 cells (5 × 10^5) were subcutaneously implanted in the flanks of the immunocompetent female BALB/c mice. Treatment was initiated once tumors reached approximately 50 mm^3. RXC004 was dosed orally at 1.5 or 5 mg/kg (once daily). Anti-PD-1 (BioXCell) or isotype control was dosed every 3 days at 10 mg/kg i.p. Tumor volume was measured over time. For immunophenotyping the tumor infiltrate, tumors from a separate study were resected at day 14, weighed, digested, and stained for flow cytometry analysis by Beckton Dickenson LSR Fortessa. T-cell analysis panel included viability dye, CD45, CD3, CD4, CD8, CD25, and FOXP3.
# SNU-1411 xenograft [1] = experiment: SNU-1411 tumor reimplantation study; type: in vivo, mouse (NOD-SCID); details: prior treatment 5 mg/kg once daily, 9 days; versus vehicle pretreated
# Procedure: The reimplantation study was performed at Sygnature Discovery. SNU-1411–implanted NOD-SCID mice were dosed orally with RXC004 (5 mg/kg, once daily) once tumors reached an average size of 350 mm^3. After 9 days treatment, tumors were resected and equivalent viable tumor fragments from each tumor were reimplanted into separate naïve NOD-SCID mice, tumor volume was assessed at various subsequent timepoints.
# SNU-1411 xenograft [2] = experiment: SNU-1411 xenograft dose-response study; type: in vivo, mouse (NOD-SCID); details: day 19; 1.5 and 5 mg/kg once daily, 1.5 mg/kg twice daily continuous or 5-day on/2-day off
# Procedure: To explore dose–response effects in vivo, SNU-1411 (1 × 10^7 cells) were implanted into NOD-SCID mice subcutaneously at Axis Bioservices. Animals were randomized into the indicated groups and oral dosing of RXC004 was initiated when tumors reached approximately 200 mm^3. Tumor volume measurements were taken at day 19, n ≥9 per group. Pharmacokinetic/pharmacodynamic analysis in SNU1411/NOD-SCID mice was performed in a separate study at Axis Biosciences, with tissue and plasma extracted for assessments after 7 days of RXC004 dosing. Tumor was divided into two sections; one section snap frozen and the other processed by FFPE. RXC004 levels were determined in snap frozen tumor and blood samples by LC/MS-MS. Expression analysis of the indicated genes was performed on snap frozen tumor as described above. Serial FFPE tumor sections were stained with H&E, anti-Ki67 (Abcam #Ab15580) or the dual mucin stain Alcian-blue/periodic acid shift (AB-PAS) at Histologix. IHC images were quantified using HALO software and modules (Indica Labs). The AB-PAS images were analyzed with the area quantification module on tumor area. […] The Ki67 images were analyzed with the multiplex IHC module and number of Ki67-positive cells were determined per mm^2 of total or differentiated tumor area.
# Microsomal stability [3] = type: in vitro ADME; details: Human, 1 μmol/L
# Procedure: (§1) Metabolic stability: liver microsomes and hepatocytes from human, mouse (CD1), rat (Sprague Dawley) and dog (Beagle) were obtained from Invitrogen. RXC004 (1 μmol/L) was incubated at 37°C with microsomes (0.5 mg · mL^−1) or hepatocytes (0.5 × 10^6 cells · mL^−1). Aliquots were removed at 0–45 minutes and RXC004 concentrations determined by LC/MS-MS analysis. Half-life (T1/2) and intrinsic clearance (CLint) were calculated as described in ref. [18].
# [4] = system: cell lines with mutations in downstream Wnt signaling; experiment: Proliferation, 5 days, ATPLite; type: cell-based, human; details: concentration-series
# Procedure: Cells were treated with a concentration-series of RXC004 for 5 days and proliferation measured using ATPLite 1-Step Reagent (Perkin Elmer #6016731). Data were normalized to DMSO-treated controls and IC50 values determined. Colorectal cell lines used were: WiDR (APC-E853*/T1556fs*3), HCT116 (β-cateninΔSer45; RNF43-R117fs*41), JVE-109 (RNF43-V211fs*47/G659fs*41), SNU-1411 (PRPTK-RSPO-3 fusion). Pancreatic cell lines were: CAPAN-2 (RNF43-R330fs*89), AsPC1 (RNF43-S720*), and HPAF-II (RNF43-E174*). Cell lines were from ATCC, except for SNU-1411 (Korean Cell Line Bank) and cultured for no more than 20 passages. Cells were routinely tested for Mycoplasma by the MycoAlert test (Lonza) and authenticated using short tandem repeat fingerprinting.
# HPAF-II cells = experiment: Cell-cycle analysis, phospho-Ser10 histone H3 flow cytometry; type: cell-based, human; details: 100 nmol/L, representative plot (DMSO 2.03%)
# Procedure: For concentration–response effects on gene expression, Single-Shot Cell Lysis kit (Bio-Rad #172-5080) was used for RNA extraction, data were normalized to DMSO-treated controls, and IC50 values determined. For cell-cycle analysis, the cancer cell line panel was treated with RXC004 (100 nmol/L) or DMSO (0.1%) for 3 days. Cell-cycle profiles were determined by staining with propidium iodide (Thermo Fisher Scientific #P3566) and phospho-Ser10-Histone-H3 (AlexaFluor-647, BioLegend #650806), and quantified using an Agilent Novocyte-3000 flow cytometer. For in vitro growth curve analysis, HPAF-II and SNU-1411 cells were seeded in 96-well plates at 2,000 cells/well and imaged on the IncuCyte (Sartorius) at 10× magnification with 4 fields of view per well. Total cell object count over time was calculated using the Adherent Cell-by-Cell analysis module.
# Hepatocyte stability = type: in vitro ADME, rat (Sprague Dawley); details: Rat, 1 μmol/L
# Procedure: as §1
# [5] = pKa by fast UV (spectrometric) technique; type: physicochemical; details: 25°C; for pKa: methanol-water mixture
# Procedure: pKas were determined using the fast UV (spectrometric) technique. Samples were titrated under methanol-water mixture between pH2.0 and pH12.0 at 30–15 μmol/L at 25°C. The ionic strength was 0.192 mol/L (KCl). Aqueous pKas were determined per Yasuda-Shedlovsky ([17]).
# [6] = Permeability in Caco-2 cells; type: in vitro ADME; details: human
# Procedure: Permeability of RXC004 was assessed in MDR1-MDCKII (Netherlands Cancer Institute) and Caco-2 cells (Merck Life Sciences). RXC004 (10 μmol/L) was added to either apical or basolateral chamber for 2 hours at 37°C, then an aliquot from the opposite side of the monolayer was removed and quantified by LC/MS-MS. Apparent permeability (Papp) was calculated according to standard practice ([20]).
# Microsomal stability [7] = type: in vitro ADME, dog (Beagle); details: Dog, 1 μmol/L
# Procedure: as §1
smiles,measurement,setting,value
"Cc1c(-c2ccnc(C(F)(F)F)c2)ncn1CC(=O)Nc1ccc(-c2cnccn2)cn1 [RXC004, 2-[5-methyl-4-[2-(trifluoromethyl)-4-pyridyl]imidazol-1-yl]-N-(5-pyrazin-2-yl-2-pyridyl)acetamide]",tumor growth,CT26 tumors,limited effect on tumor growth
same,tumor growth after reimplantation into naïve untreated mice,SNU-1411 xenograft [1],prolonged impact on tumor growth
same,tumor volume,SNU-1411 xenograft [2],Significant reduction in tumor volume
same,Microsomal stability: CLint,Microsomal stability [3],6.0 μL minute^−^1 · mg^−^1
same,proliferation,[4],had no effect
same,pH3+ (percentage phospho-Ser10 histone H3 positive cells),HPAF-II cells,0.28%
same,Hepatocyte stability: CLint,Hepatocyte stability,5.3 μL minute^−^1 · 10^6 cells^−^1
same,pKa (most basic),[5],3.84
same,pKa,[5]; read-out: pKa (most acidic),11.2
same,pKa,[5]; read-out: pKa (most basic),3.8
same,"Papp A→B at 2 h, 10 μmol/L","[6]; apical to basolateral, read-out: Caco-2 PappA-B",23.6 ×10⁻⁶ cm/s
same,"Papp B→A at 2 h, 10 μmol/L","[6]; basolateral to apical, read-out: Caco-2 PappB-A",21.8 ×10⁻⁶ cm/s
same,Microsomal stability: CLint,Microsomal stability [7],31.6 μL minute^−^1 · mg^−^1
